Data as given in paper PMC12467487, “An In Vitro Study of Protein S-Glutathionylation by Members of the CLIC Protein Family” (Biomolecules, 2025).

Tests used:
Test in all cases: tryptophan fluorescence quenching, glutathionylation of SQLWCLSN, AUC
Format in all cases: biochemical
[1] = molecular target: T1, rCLIC4 (Homo sapiens, UniProt Q9Y696); details: 5 mM GSSG, 100 uM peptide, McIlvaine's buffer pH 7, 0.1 uM enzyme; 1 h pre-incubation with 10 uM IAA-94
T1 construct: gene CLIC4; recombinant, soluble form; pET28a(+), ClearColi BL21(DE3); His-tag removed by thrombin; SEC
T1 sequence (Q9Y696 whole entry): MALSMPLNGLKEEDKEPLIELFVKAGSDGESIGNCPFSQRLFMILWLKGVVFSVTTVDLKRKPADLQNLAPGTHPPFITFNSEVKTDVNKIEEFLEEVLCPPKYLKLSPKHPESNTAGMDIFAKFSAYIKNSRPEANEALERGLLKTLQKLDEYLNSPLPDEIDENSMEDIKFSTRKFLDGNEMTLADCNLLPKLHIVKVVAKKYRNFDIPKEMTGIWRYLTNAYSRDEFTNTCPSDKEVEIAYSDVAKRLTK

[2] = molecular target: T2, rCLIC3 (Homo sapiens, UniProt O95833); details: 5 mM GSSG, 100 uM peptide, McIlvaine's buffer pH 8, 0.1 uM enzyme; 1 h pre-incubation with 10 uM IAA-94
T2 construct: gene CLIC3; recombinant, soluble form; pET28a(+), E. coli BL21(DE3); His-tag removed by thrombin; SEC; endotoxin removed
T2 sequence (O95833 whole entry): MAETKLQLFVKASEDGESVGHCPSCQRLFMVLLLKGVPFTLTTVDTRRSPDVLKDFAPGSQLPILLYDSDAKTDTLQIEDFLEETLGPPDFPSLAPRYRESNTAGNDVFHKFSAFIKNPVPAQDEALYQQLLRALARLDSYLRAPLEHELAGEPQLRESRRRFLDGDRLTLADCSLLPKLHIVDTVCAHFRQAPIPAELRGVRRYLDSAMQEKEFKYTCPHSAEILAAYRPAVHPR

[3] = molecular target: T3, rCLIC1 (Homo sapiens, UniProt O00299); details: 5 mM GSSG, 100 uM peptide, McIlvaine's buffer pH 7, 0.1 uM enzyme; 1 h pre-incubation with 10 uM IAA-94
T3 construct: gene CLIC1; recombinant, soluble form; pET28a(+), ClearColi BL21(DE3); His-tag removed by thrombin; SEC

fold decrease in glutathionylation activity at 10 uM [1]: 0.4 fold
fold reduction of glutathionylation activity at 10 uM [2]: 0.2 fold
fold decrease in glutathionylation activity at 10 uM [3]: 0.7 fold
SMILES: CC1(C2CCCC2)Cc2cc(OCC(=O)O)c(Cl)c(Cl)c2C1=O (stereo not drawn) [IAA-94]
